Values of other authors in article PMC10582684 (RSC Advances, 2023).
Read-outs that look alike come from different tables or passages of the source. Each block holds one compound with its values, some of them ahead of it.

Assays:
[1] = oligopeptides from ginkgo seed and bighead carp, high content of Pro
[2] = system: ACE
[3] = literature comparison
[4] = peptides from walnut protein with Lys in C-terminal tripeptide

Stability against gastrointestinal enzymic digestion (in words) [1]: excellent stability
Compound: PPSEPTKL

Compound: PKPP
Inhibiting ability on ACE (in words) [2, 4]: excellent inhibiting ability on ACE

Compound: YIRLHF
Inhibitory kinetics on ACE ([2]; peptide from bighead carp protein): competitive inhibitory kinetics

Compound: O=C(O)CN(CCN(CC(=O)O)CC(=O)O)CC(=O)O [ethylenediamine tetraacetic acid]
Chelating ability towards zinc ions [3]: 57.17 mg/g

Compound: WNGPKGV
Inhibiting ability on ACE (in words) ([2]; peptide from corn protein with Lys in C-terminal tripeptide): excellent inhibiting ability on ACE

Stability against gastrointestinal enzymic digestion (in words) [1]: excellent stability
Compound: VPKIPPP

Stability against gastrointestinal enzymic digestion (in words) [1]: excellent stability
Compound: LSMSFPPF

Compound: TGLL
Chelating ability towards zinc ions [3]: 2.27 mg/g

Compound: PPKP
Inhibiting ability on ACE (in words) [2, 4]: excellent inhibiting ability on ACE
